Experimental data reported in publication PMC7531004, “Discovery of gramicidin A analogues with altered activities by multidimensional screening of a one-bead-one-compound library” (Nature Communications, 2020).
Where a SMILES comes first, the peptide text is derived from it. [ ]: non-standard residue; d: D form. The star is where a group is joined. NHCH2CH2OH = OCCN*; For = O=C*

Tests used:
[1] = H+/Na+ transport assay of bead-derived peptides (one-point); format: biochemical; design: key: relative activity; mean of two control wells = 1.00; conditions: bead-derived peptide solution, EYPC/EYPG LUVs;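 further: relative to parent gramicidin A activity set to 1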
Method in brief: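 One-point screen: peptide + pyranine-loaded LUVs, 30 min RT with vortexing, 96-well. Read-out is fluorescence intensity scaled as 100 × (Ix – I0)/(Imax – I0). Imax from Triton X-100, I0 from untreated vesicles, and the mean of the two control wells is set to 1.00.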

[2] = tested on: P388 mouse leukemia cells; conditions: 92 h
Method in brief: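 Peptide stocks diluted 250× in growth medium; P388 cells 1 × 10^4 cells/mL final; 37 °C, 5% CO2, 92 h. WST-1 + 1-methoxy PMS, 4 h, A415. Output: % viability.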

[3] = tested on: Streptococcus pyogenes SSI-9; test: Antibacterial activity assay of bead-derived peptides (three concentrations); format: cell-based; design: key: +++: inhibition by the 640-fold diluted peptide solution; ++: inhibition by the 160-fold diluted solution; +: inhibition by the 40-fold diluted solution; -: no inhibition; conditions: S. pyogenes, bead-derived peptide solution, three concentrations
Method in brief: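 Growth inhibition scored visually as precipitated bacteria after 37 °C, 18 h incubation. Streptococcus pyogenes SSI-9 inoculum of 2 × 10^5 CFU in Ca2+/Mg2+-adjusted Mueller Hinton broth plus 5% laked horse blood; peptides tested at three levels: stock, 4-fold and 16-fold DMSO dilutions.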

SMILES	H+/Na+ transport activity normalized against the value of 1 (1.00) [1]	cell viability/% [2] [%]	antibacterial activity [3]
CC(C)C[C@@H](NC(=O)[C@H](C)NC(=O)CNC(=O)[C@@H](NC=O)C(C)C)C(=O)N[C@@H](C)C(=O)N[C@@H](C(=O)N[C@H](C(=O)N[C@H](CC(C)C)C(=O)N[C@@H](Cc1c[nH]c2ccccc12)C(=O)N[C@@H](C(=O)N[C@@H](Cc1c[nH]c2ccccc12)C(=O)N[C@H](CC(C)C)C(=O)N[C@@H](Cc1c[nH]c2ccccc12)C(=O)N[C@@H](C(=O)N[C@@H](Cc1c[nH]c2ccccc12)C(=O)NCCO)C(C)C)C(C)C)C(C)C)C(C)C [compound 4895] (For-VGA[dL]A[dV]V[dL]W[dV]W[dL]W[dV]W-NHCH2CH2OH)	1.16	48.2	+
CC(C)C[C@@H](NC(=O)[C@H](C)NC(=O)CNC(=O)[C@@H](NC=O)C(C)C)C(=O)N[C@@H](C)C(=O)N[C@H](CC(C)C)C(=O)N[C@H](C(=O)N[C@H](CC(C)C)C(=O)N[C@@H](Cc1c[nH]c2ccccc12)C(=O)N[C@H](CC(C)C)C(=O)N[C@@H](Cc1c[nH]c2ccccc12)C(=O)N[C@@H](C(=O)N[C@@H](Cc1c[nH]c2ccccc12)C(=O)N[C@@H](C(=O)N[C@@H](Cc1c[nH]c2ccccc12)C(=O)NCCO)C(C)C)C(C)C)C(C)C [compound 2718] (For-VGA[dL]A[dL]V[dL]W[dL]W[dV]W[dV]W-NHCH2CH2OH)	1.11	0.3	+
CC(C)C[C@@H](NC(=O)[C@H](C)NC(=O)[C@H](NC(=O)[C@H](C)NC(=O)CNC(=O)[C@@H](NC=O)C(C)C)C(C)C)C(=O)N[C@H](C(=O)N[C@@H](C(=O)N[C@@H](Cc1c[nH]c2ccccc12)C(=O)N[C@H](CC(C)C)C(=O)N[C@@H](Cc1c[nH]c2ccccc12)C(=O)N[C@H](CC(C)C)C(=O)N[C@@H](Cc1c[nH]c2ccccc12)C(=O)N[C@@H](C(=O)N[C@@H](Cc1c[nH]c2ccccc12)C(=O)NCCO)C(C)C)C(C)C)C(C)C [compound 12789] (For-VGA[dV]A[dL]V[dV]W[dL]W[dL]W[dV]W-NHCH2CH2OH)	1.04	9.6	-
CC(C)C[C@@H](NC(=O)[C@H](C)NC(=O)CNC(=O)[C@@H](NC=O)C(C)C)C(=O)N[C@@H](C)C(=O)N[C@H](CC(C)C)C(=O)N[C@H](C(=O)N[C@@H](C(=O)N[C@@H](Cc1c[nH]c2ccccc12)C(=O)N[C@H](CC(C)C)C(=O)N[C@@H](Cc1c[nH]c2ccccc12)C(=O)N[C@H](CC(C)C)C(=O)N[C@@H](Cc1c[nH]c2ccccc12)C(=O)N[C@@H](C(=O)N[C@@H](Cc1c[nH]c2ccccc12)C(=O)NCCO)C(C)C)[C@H](C)O)C(C)C [compound 11295] (For-VGA[dL]A[dL]V[dT]W[dL]W[dL]W[dV]W-NHCH2CH2OH)	1.12	78.1	-
CC(C)C[C@@H](NC(=O)[C@H](C)NC(=O)[C@H](NC(=O)[C@H](C)NC(=O)CNC(=O)[C@@H](NC=O)C(C)C)C(C)C)C(=O)N[C@H](C(=O)N[C@H](CC(C)C)C(=O)N[C@@H](Cc1c[nH]c2ccccc12)C(=O)N[C@H](CC(C)C)C(=O)N[C@@H](Cc1c[nH]c2ccccc12)C(=O)N[C@@H](C(=O)N[C@@H](Cc1c[nH]c2ccccc12)C(=O)N[C@@H](C(=O)N[C@@H](Cc1c[nH]c2ccccc12)C(=O)NCCO)[C@H](C)O)C(C)C)C(C)C [compound 6943] (For-VGA[dV]A[dL]V[dL]W[dL]W[dV]W[dT]W-NHCH2CH2OH)	1.02	100.0	-
CNC(=O)C[C@@H](NC(=O)[C@H](Cc1c[nH]c2ccccc12)NC(=O)[C@@H](CC(C)C)NC(=O)[C@H](Cc1c[nH]c2ccccc12)NC(=O)[C@H](NC(=O)[C@H](Cc1c[nH]c2ccccc12)NC(=O)[C@@H](CC(C)C)NC(=O)[C@@H](NC(=O)[C@H](NC(=O)[C@H](C)NC(=O)[C@H](NC(=O)[C@H](C)NC(=O)CNC(=O)[C@@H](NC=O)C(C)C)C(C)C)C(C)C)C(C)C)C(C)C)C(=O)N[C@@H](Cc1c[nH]c2ccccc12)C(=O)NCCO [compound 2526] (For-VGA[dV]A[dV]V[dL]W[dV]W[dL]W[dD](NHMe)W-NHCH2CH2OH)	1.02	100.0	-
CC(C)C[C@@H](NC(=O)[C@H](Cc1c[nH]c2ccccc12)NC(=O)[C@H](NC(=O)[C@H](Cc1c[nH]c2ccccc12)NC(=O)[C@H](NC(=O)[C@@H](NC(=O)[C@H](NC(=O)[C@H](C)NC(=O)[C@H](NC(=O)[C@H](C)NC(=O)CNC(=O)[C@@H](NC=O)C(C)C)C(C)C)C(C)C)C(C)C)C(C)C)C(C)C)C(=O)N[C@@H](Cc1c[nH]c2ccccc12)C(=O)N[C@@H](C(=O)N[C@@H](Cc1c[nH]c2ccccc12)C(=O)NCCO)C(C)C [compound 6165] (For-VGA[dV]A[dV]V[dV]W[dV]W[dL]W[dV]W-NHCH2CH2OH)	1.07	67.9	-
CNC(=O)C[C@@H](NC(=O)[C@H](Cc1c[nH]c2ccccc12)NC(=O)[C@@H](CC(C)C)NC(=O)[C@H](Cc1c[nH]c2ccccc12)NC(=O)[C@H](NC(=O)[C@H](Cc1c[nH]c2ccccc12)NC(=O)[C@H](NC(=O)[C@@H](NC(=O)[C@@H](CC(C)C)NC(=O)[C@H](C)NC(=O)[C@H](NC(=O)[C@H](C)NC(=O)CNC(=O)[C@@H](NC=O)C(C)C)C(C)C)C(C)C)C(C)C)C(C)C)C(=O)N[C@@H](Cc1c[nH]c2ccccc12)C(=O)NCCO [compound 6329] (For-VGA[dV]A[dL]V[dV]W[dV]W[dL]W[dD](NHMe)W-NHCH2CH2OH)	1.03	43.5	-
CNC(=O)C[C@@H](NC(=O)[C@H](Cc1c[nH]c2ccccc12)NC(=O)[C@@H](CC(C)C)NC(=O)[C@H](Cc1c[nH]c2ccccc12)NC(=O)[C@H](NC(=O)[C@H](Cc1c[nH]c2ccccc12)NC(=O)[C@@H](CC(C)C)NC(=O)[C@@H](NC(=O)[C@H](NC(=O)[C@H](C)NC(=O)[C@@H](CC(C)C)NC(=O)[C@H](C)NC(=O)CNC(=O)[C@@H](NC=O)C(C)C)C(C)C)C(C)C)C(C)C)C(=O)N[C@@H](Cc1c[nH]c2ccccc12)C(=O)NCCO [compound 10043] (For-VGA[dL]A[dV]V[dL]W[dV]W[dL]W[dD](NHMe)W-NHCH2CH2OH)	1.09	56.6	-
CC(C)C[C@@H](NC(=O)[C@H](Cc1c[nH]c2ccccc12)NC(=O)[C@@H](CC(C)C)NC(=O)[C@H](Cc1c[nH]c2ccccc12)NC(=O)[C@H](NC(=O)[C@H](Cc1c[nH]c2ccccc12)NC(=O)[C@H](NC(=O)[C@@H](NC(=O)[C@H](NC(=O)[C@H](C)NC(=O)[C@H](NC(=O)[C@H](C)NC(=O)CNC(=O)[C@@H](NC=O)C(C)C)C(C)C)C(C)C)C(C)C)C(C)C)C(C)C)C(=O)N[C@@H](Cc1c[nH]c2ccccc12)C(=O)NCCO [compound 10649] (For-VGA[dV]A[dV]V[dV]W[dV]W[dL]W[dL]W-NHCH2CH2OH)	1.19	100.0	++
CC(C)C[C@@H](NC(=O)[C@H](Cc1c[nH]c2ccccc12)NC(=O)[C@@H](CC(C)C)NC(=O)[C@H](Cc1c[nH]c2ccccc12)NC(=O)[C@H](NC(=O)[C@H](Cc1c[nH]c2ccccc12)NC(=O)[C@@H](CC(C)C)NC(=O)[C@@H](NC(=O)[C@H](NC(=O)[C@H](C)NC(=O)[C@H](NC(=O)[C@H](C)NC(=O)CNC(=O)[C@@H](NC=O)C(C)C)C(C)C)C(C)C)C(C)C)C(C)C)C(=O)N[C@@H](Cc1c[nH]c2ccccc12)C(=O)NCCO [compound 10661] (For-VGA[dV]A[dV]V[dL]W[dV]W[dL]W[dL]W-NHCH2CH2OH)	1.03	39.9	+
CC(C)C[C@@H](NC(=O)[C@H](C)NC(=O)CNC(=O)[C@@H](NC=O)C(C)C)C(=O)N[C@@H](C)C(=O)N[C@H](CC(C)C)C(=O)N[C@H](C(=O)N[C@H](CC(C)C)C(=O)N[C@@H](Cc1c[nH]c2ccccc12)C(=O)N[C@@H](C(=O)N[C@@H](Cc1c[nH]c2ccccc12)C(=O)N[C@@H](C(=O)N[C@@H](Cc1c[nH]c2ccccc12)C(=O)N[C@H](CC(C)C)C(=O)N[C@@H](Cc1c[nH]c2ccccc12)C(=O)NCCO)C(C)C)[C@H](C)O)C(C)C [compound 10442] (For-VGA[dL]A[dL]V[dL]W[dT]W[dV]W[dL]W-NHCH2CH2OH)	1.15	100.0	-
CC(C)C[C@@H](NC(=O)[C@H](C)NC(=O)[C@H](NC(=O)[C@H](C)NC(=O)CNC(=O)[C@@H](NC=O)C(C)C)[C@H](C)O)C(=O)N[C@H](C(=O)N[C@H](CC(C)C)C(=O)N[C@@H](Cc1c[nH]c2ccccc12)C(=O)N[C@@H](C(=O)N[C@@H](Cc1c[nH]c2ccccc12)C(=O)N[C@H](CC(C)C)C(=O)N[C@@H](Cc1c[nH]c2ccccc12)C(=O)N[C@@H](C(=O)N[C@@H](Cc1c[nH]c2ccccc12)C(=O)NCCO)C(C)C)[C@H](C)O)C(C)C [compound 4545] (For-VGA[dT]A[dL]V[dL]W[dT]W[dL]W[dV]W-NHCH2CH2OH)	1.18	100.0	-
